These compounds were tested on Vcap cells (assay: CTG cell proliferation assay on Vcap cells (compounds alone or in combination, 5 days)). Details: Homo sapiens, VCaP, 120 h, tested compound alone, 0.1 μM; read-out: Survival rate of Vcap cells.
Type: cell-based
Procedure: In vitro test of the inhibition effect of the compound in combination with androgen receptor pathway modulators on the prostate cancer cell proliferation.
Inhibition effect of the compounds such as B101, B102, B103, B104, B105, B106, C111 and the like, androgen receptor pathway modulators, hormone compounds, alone or in combination with each other on the prostate cancer cell proliferation were tested on Vcap cells (androgen receptor (+) prostate cancer cells) (ATCC, catalogue number CRL-2876). The specific experimental operation was as follows: 5×10^3 Vcap cells per well were inoculated into 96-well plates with transparent bottom and white wall (Corning, catalogue number CLS3903) containing the specific medium, and were cultured in a 37° C., 5% CO2 incubator for 24 hours. The tested compounds and the androgen receptor pathway modulators were prepared to a 150 mM stocking solution with DMSO (Sigma, catalogue number 276855), diluted with culture medium to the desired concentrations (the final concentration of DMSO is 0.2%), and then added to each well, 2 wells/concentration, followed by being incubated in a 37° C., 5% CO2 incubator for 5 days. The tested compounds were used alone or in combination with other androgen receptor pathway modulators and/or hormone compounds respectively. […] After that, 100 μl of CellTiter-Glo® cell viability assay reagent (Promega, catalogue number G7570) was added to each well and mixed well on a vibrator for 10 minutes to induce cell lysis. The 96-well plate was placed at room temperature for 10 minutes, so as to stabilize its luminescence signal. A white bottom membrane was pasted on the bottom of the plate and the plate was tested using EnSpire.

Compound | viability at 0.1 µM
[2H][C@@]1(N2Cc3c(N)cc(F)cc3C2=O)CCC(=O)NC1=O [B106] | 86.8%
CC(=O)O[C@]1(C(C)=O)CC[C@H]2[C@@H]3C=C(Cl)C4=CC(=O)[C@@H]5C[C@@H]5[C@]4(C)[C@H]3CC[C@@]21C [Cyproterone Acetate, reference compound] | 97.2%
CC(C)C(=O)Nc1ccc([N+](=O)[O-])c(C(F)(F)F)c1 [Flutamide, reference compound] | 105%
CC(=O)O[C@]1(C(C)=O)CC[C@H]2[C@@H]3C=C(C)C4=CC(=O)CC[C@]4(C)[C@H]3CC[C@@]21C [Megestrol Acetate, reference compound] | 99.7%

Same assay, conditions: Homo sapiens, VCaP, 120 h, tested compound alone, 1 μM; read-out: Survival rate of Vcap cells

Compound | viability at 1 µM
[2H][C@@]1(N2Cc3c(N)cc(F)cc3C2=O)CCC(=O)NC1=O [B106] | 79%
CC(=O)O[C@]1(C(C)=O)CC[C@H]2[C@@H]3C=C(Cl)C4=CC(=O)[C@@H]5C[C@@H]5[C@]4(C)[C@H]3CC[C@@]21C [Cyproterone Acetate, reference compound] | 96%
CC(C)C(=O)Nc1ccc([N+](=O)[O-])c(C(F)(F)F)c1 [Flutamide, reference compound] | 96.7%
CC(=O)O[C@]1(C(C)=O)CC[C@H]2[C@@H]3C=C(C)C4=CC(=O)CC[C@]4(C)[C@H]3CC[C@@]21C [Megestrol Acetate, reference compound] | 103%

Same assay, conditions: Homo sapiens, VCaP, 120 h, tested compound alone, 10 μM; read-out: Survival rate of Vcap cells

Compound | viability at 10 µM
[2H][C@@]1(N2Cc3c(N)cc(F)cc3C2=O)CCC(=O)NC1=O [B106] | 74.1%
CC(=O)O[C@]1(C(C)=O)CC[C@H]2[C@@H]3C=C(Cl)C4=CC(=O)[C@@H]5C[C@@H]5[C@]4(C)[C@H]3CC[C@@]21C [Cyproterone Acetate, reference compound] | 83.5%
CC(C)C(=O)Nc1ccc([N+](=O)[O-])c(C(F)(F)F)c1 [Flutamide, reference compound] | 73.1%
CC(=O)O[C@]1(C(C)=O)CC[C@H]2[C@@H]3C=C(C)C4=CC(=O)CC[C@]4(C)[C@H]3CC[C@@]21C [Megestrol Acetate, reference compound] | 88.9%

Same assay, conditions: tested compound 0.1 μM in combination with 1 μM ARN-509

Compound | Survival rate of Vcap cells
[2H][C@@]1(N2Cc3c(N)cc(F)cc3C2=O)CCC(=O)NC1=O [B106] | 50.6%

Same assay, conditions: tested compound 0.1 μM in combination with 1 μM B101

Compound | Survival rate of Vcap cells
CC(=O)Nc1ccc(OC[C@](C)(O)C(=O)Nc2ccc([N+](=O)[O-])c(C(F)(F)F)c2)cc1 [Andarine, reference compound] | 69.8%
CC(=O)O[C@]1(C(C)=O)CC[C@H]2[C@@H]3C=C(Cl)C4=CC(=O)[C@@H]5C[C@@H]5[C@]4(C)[C@H]3CC[C@@]21C [Cyproterone Acetate, reference compound] | 85.0%
CC(C)C(=O)Nc1ccc([N+](=O)[O-])c(C(F)(F)F)c1 [Flutamide, reference compound] | 80.4%
CC(=O)O[C@]1(C(C)=O)CC[C@H]2[C@@H]3C=C(C)C4=CC(=O)CC[C@]4(C)[C@H]3CC[C@@]21C [Megestrol Acetate, reference compound] | 85.2%

Same assay, conditions: tested compound 0.1 μM in combination with 1 μM B105

Compound | Survival rate of Vcap cells
CC(=O)Nc1ccc(OC[C@](C)(O)C(=O)Nc2ccc([N+](=O)[O-])c(C(F)(F)F)c2)cc1 [Andarine, reference compound] | 71.1%
CC(=O)O[C@]1(C(C)=O)CC[C@H]2[C@@H]3C=C(Cl)C4=CC(=O)[C@@H]5C[C@@H]5[C@]4(C)[C@H]3CC[C@@]21C [Cyproterone Acetate, reference compound] | 82.1%
C[C@]12CC[C@H](O)C[C@@H]1CC[C@@H]1[C@@H]2CC[C@]2(C)C(=O)CC[C@@H]12 [Epiandrosterone, reference compound] | 71.5%
CC(C)C(=O)Nc1ccc([N+](=O)[O-])c(C(F)(F)F)c1 [Flutamide, reference compound] | 76.5%
CC(=O)O[C@]1(C(C)=O)CC[C@H]2[C@@H]3C=C(C)C4=CC(=O)CC[C@]4(C)[C@H]3CC[C@@]21C [Megestrol Acetate, reference compound] | 82.1%

Same assay, conditions: tested compound 0.1 μM in combination with 1 μM Enzalutamide

Compound | Survival rate of Vcap cells
[2H][C@@]1(N2Cc3c(N)cc(F)cc3C2=O)CCC(=O)NC1=O [B106] | 50.6%

Same assay, conditions: tested compound 1 μM in combination with 1 μM ARN-509

Compound | Survival rate of Vcap cells
[2H][C@@]1(N2Cc3c(N)cc(F)cc3C2=O)CCC(=O)NC1=O [B106] | 41.1%

Same assay, conditions: tested compound 1 μM in combination with 1 μM B101

Compound | Survival rate of Vcap cells
CC(=O)Nc1ccc(OC[C@](C)(O)C(=O)Nc2ccc([N+](=O)[O-])c(C(F)(F)F)c2)cc1 [Andarine, reference compound] | 65.5%
CC(=O)O[C@]1(C(C)=O)CC[C@H]2[C@@H]3C=C(Cl)C4=CC(=O)[C@@H]5C[C@@H]5[C@]4(C)[C@H]3CC[C@@]21C [Cyproterone Acetate, reference compound] | 85.0%
C[C@]12CC[C@H](O)C[C@@H]1CC[C@@H]1[C@@H]2CC[C@]2(C)C(=O)CC[C@@H]12 [Epiandrosterone, reference compound] | 71.1%
CC(C)C(=O)Nc1ccc([N+](=O)[O-])c(C(F)(F)F)c1 [Flutamide, reference compound] | 65.1%
CC(=O)O[C@]1(C(C)=O)CC[C@H]2[C@@H]3C=C(C)C4=CC(=O)CC[C@]4(C)[C@H]3CC[C@@]21C [Megestrol Acetate, reference compound] | 83.1%

Same assay, conditions: tested compound 1 μM in combination with 1 μM B105

Compound | Survival rate of Vcap cells
CC(=O)Nc1ccc(OC[C@](C)(O)C(=O)Nc2ccc([N+](=O)[O-])c(C(F)(F)F)c2)cc1 [Andarine, reference compound] | 64.6%
CC(=O)O[C@]1(C(C)=O)CC[C@H]2[C@@H]3C=C(Cl)C4=CC(=O)[C@@H]5C[C@@H]5[C@]4(C)[C@H]3CC[C@@]21C [Cyproterone Acetate, reference compound] | 84.0%
C[C@]12CC[C@H](O)C[C@@H]1CC[C@@H]1[C@@H]2CC[C@]2(C)C(=O)CC[C@@H]12 [Epiandrosterone, reference compound] | 64.6%
CC(C)C(=O)Nc1ccc([N+](=O)[O-])c(C(F)(F)F)c1 [Flutamide, reference compound] | 64.6%
CC(=O)O[C@]1(C(C)=O)CC[C@H]2[C@@H]3C=C(C)C4=CC(=O)CC[C@]4(C)[C@H]3CC[C@@]21C [Megestrol Acetate, reference compound] | 83.3%

Same assay, conditions: tested compound 1 μM in combination with 1 μM Enzalutamide

Compound | Survival rate of Vcap cells
[2H][C@@]1(N2Cc3c(N)cc(F)cc3C2=O)CCC(=O)NC1=O [B106] | 40.5%

Same assay, conditions: tested compound 10 μM in combination with 1 μM ARN-509

Compound | Survival rate of Vcap cells
[2H][C@@]1(N2Cc3c(N)cc(F)cc3C2=O)CCC(=O)NC1=O [B106] | 39.9%

Same assay, conditions: tested compound 10 μM in combination with 1 μM B101

Compound | Survival rate of Vcap cells
CC(=O)Nc1ccc(OC[C@](C)(O)C(=O)Nc2ccc([N+](=O)[O-])c(C(F)(F)F)c2)cc1 [Andarine, reference compound] | 53.8%
CC(=O)O[C@]1(C(C)=O)CC[C@H]2[C@@H]3C=C(Cl)C4=CC(=O)[C@@H]5C[C@@H]5[C@]4(C)[C@H]3CC[C@@]21C [Cyproterone Acetate, reference compound] | 78.9%
C[C@]12CC[C@H](O)C[C@@H]1CC[C@@H]1[C@@H]2CC[C@]2(C)C(=O)CC[C@@H]12 [Epiandrosterone, reference compound] | 79.8%
CC(C)C(=O)Nc1ccc([N+](=O)[O-])c(C(F)(F)F)c1 [Flutamide, reference compound] | 42.8%
CC(=O)O[C@]1(C(C)=O)CC[C@H]2[C@@H]3C=C(C)C4=CC(=O)CC[C@]4(C)[C@H]3CC[C@@]21C [Megestrol Acetate, reference compound] | 75.2%

Same assay, conditions: tested compound 10 μM in combination with 1 μM B105

Compound | Survival rate of Vcap cells
CC(=O)Nc1ccc(OC[C@](C)(O)C(=O)Nc2ccc([N+](=O)[O-])c(C(F)(F)F)c2)cc1 [Andarine, reference compound] | 53.5%
CC(=O)O[C@]1(C(C)=O)CC[C@H]2[C@@H]3C=C(Cl)C4=CC(=O)[C@@H]5C[C@@H]5[C@]4(C)[C@H]3CC[C@@]21C [Cyproterone Acetate, reference compound] | 79.4%
C[C@]12CC[C@H](O)C[C@@H]1CC[C@@H]1[C@@H]2CC[C@]2(C)C(=O)CC[C@@H]12 [Epiandrosterone, reference compound] | 77.4%
CC(C)C(=O)Nc1ccc([N+](=O)[O-])c(C(F)(F)F)c1 [Flutamide, reference compound] | 43.8%
CC(=O)O[C@]1(C(C)=O)CC[C@H]2[C@@H]3C=C(C)C4=CC(=O)CC[C@]4(C)[C@H]3CC[C@@]21C [Megestrol Acetate, reference compound] | 76.6%

Same assay, conditions: tested compound 10 μM in combination with 1 μM Enzalutamide

Compound | Survival rate of Vcap cells
[2H][C@@]1(N2Cc3c(N)cc(F)cc3C2=O)CCC(=O)NC1=O [B106] | 38.2%

Same assay, conditions: tested compound alone, 0.1 μM

Compound | Survival rate of Vcap cells
CC(=O)Nc1ccc(OC[C@](C)(O)C(=O)Nc2ccc([N+](=O)[O-])c(C(F)(F)F)c2)cc1 [Andarine, reference compound] | 85.6%

Same assay, conditions: tested compound alone, 1 μM

Compound | Survival rate of Vcap cells
CC(=O)Nc1ccc(OC[C@](C)(O)C(=O)Nc2ccc([N+](=O)[O-])c(C(F)(F)F)c2)cc1 [Andarine, reference compound] | 82.7%
[2H][C@@]1(N2Cc3c(N)cc(F)cc3C2=O)CCC(=O)NC1=O [B106] | 79.0%

Same assay, conditions: tested compound alone, 10 μM

Compound | Survival rate of Vcap cells
CC(=O)Nc1ccc(OC[C@](C)(O)C(=O)Nc2ccc([N+](=O)[O-])c(C(F)(F)F)c2)cc1 [Andarine, reference compound] | 69.4%

Source: patent publication US10933059B2, “Combination, application thereof and treatment method” (KANGPU BIOPHARMACEUTICALS, LTD., priority 2016, dated 2021)
